Test: Solubility evaluation in organic solvent
Assay type: physicochemical
Conditions: for Solubility Chlorobenzene / Solubility Toluene: 30 mg compound made up to 1.0 g solution, rolled at room temperature for 1 hour, 0.2 μm syringe filter
Protocol: An organic solvent was added to 30 mg of each compound, and mixed until the total weight of each solution became 1.0 g. The mixture was rolled at room temperature for 1 hour, and then filtered with a syringe filter (Acrodisc Company) whose average pore diameter was 0.2 μm. Herein, solubility and film-forming properties were compared based on CBP, which is a generally-used host compound.
(1) Solubility Evaluation Method: solubility was determined by removing the filtered solution of the solvent and measuring the mass of the remaining solid, and the result is shown in the following Table 1. […]

Row | SMILES | Solubility Chlorobenzene (chlorobenzene) | Solubility Toluene (toluene) | Solubility in chlorobenzene (in words) (chlorobenzene) | Solubility in toluene (in words) (toluene)
1 | c1ccc(-n2c3ccccc3c3c4c5ccccc5n(-c5ccccc5)c4ccc32)cc1 [Chem. Form. 20] | equal to 3 wt % | equal to 3 wt % | – | –
2 | c1ccc(-n2c3ccccc3c3ccc4c5ccccc5n(-c5ccccc5)c4c32)cc1 [Chem. Form. 38] | equal to 3 wt % | equal to 3 wt % | – | –
3 | c1ccc(-c2nnc(-c3ccc(-c4ccc5c(c4)C4(c6ccccc6-c6ccccc64)c4ccccc4-5)cc3)o2)cc1 [Chem. Form. 43] | equal to 3 wt % | equal to 3 wt % | – | –
4 | c1cncc(-c2nnc(-c3cc(-c4ccc5c(c4)C4(c6ccccc6-c6ccccc64)c4ccccc4-5)cc(-c4ccc5c(c4)C4(c6ccccc6-c6ccccc64)c4ccccc4-5)c3)o2)c1 [Chem. Form. 44] | equal to 3 wt % | equal to 3 wt % | – | –
5 | c1ccc2c(c1)c1ccccc1n2-c1ccc(-c2ccc(-n3c4ccccc4c4ccccc43)cc2)cc1 [CBP, 4,4-N,N-dicarbazolebiphenyl, reference compound] | 1 wt % | equal to 0.5 wt % | part of the CBP was dissolved | little CBP was dissolved

Reference: US20120273764A1, “COMPOSITION FOR ORGANIC PHOTOELECTRIC DEVICE, ORGANIC PHOTOELECTRIC DEVICE USING THE SAME, AND DISPLAY DEVICE INCLUDING THE SAME” (CHEIL INDUSTRIES, INC., priority 2009, published 2012)
